Laboratory results reported in patent US20250171438A1 (Agios Pharmaceuticals, Inc., priority 2022, published 2025).

The molecules below were run against T1, human PAH with the R408W mutation (Homo sapiens, UniProt P00439, R408W) (assay: Cell Based Phenylalanine Flux Assay). Conditions: A375 cells expressing human R408W PAH; 24 hrs compound incubation; 13C-Tyrosine by LC-MS; average where tested multiple times; read-out: AC50.
T1 construct: expressed in transfected cells
T1 sequence (P00439 1-452 R408W): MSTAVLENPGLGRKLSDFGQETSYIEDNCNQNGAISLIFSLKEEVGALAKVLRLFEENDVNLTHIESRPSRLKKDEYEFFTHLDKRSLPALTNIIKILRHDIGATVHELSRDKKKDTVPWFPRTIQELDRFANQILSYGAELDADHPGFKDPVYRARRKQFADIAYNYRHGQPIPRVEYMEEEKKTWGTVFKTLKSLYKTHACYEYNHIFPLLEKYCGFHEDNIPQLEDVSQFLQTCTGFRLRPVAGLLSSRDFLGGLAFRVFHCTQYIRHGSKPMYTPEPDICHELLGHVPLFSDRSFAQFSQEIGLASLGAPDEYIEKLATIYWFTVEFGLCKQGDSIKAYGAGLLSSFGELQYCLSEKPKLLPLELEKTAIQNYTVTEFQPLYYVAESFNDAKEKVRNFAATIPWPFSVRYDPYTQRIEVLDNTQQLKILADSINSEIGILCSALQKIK
Set-up: scale not given here

AC50, > 5000 nM:
Cc1c(C(=O)N2CCc3[nH]cnc3[C@@H]2c2nc3c(F)cccc3s2)cnn1CC(F)(F)F [Example 1920, (R)-(4-(4-fluorobenzo[d]thiazol-2-yl)-6,7-dihydro-1H-imidazo[4,5-c]pyridin-5(4H)-yl)(5-methyl-1-(2,2,2-trifluoroethyl)-1H-pyrazol-4-yl)methanone]
Nc1cc(C(=O)N2CCc3[nH]cnc3[C@@H]2c2nc3c(F)cccc3s2)n(C(F)F)n1 [Example 2054, (R)-(3-amino-1-(difluoromethyl)-1H-pyrazol-5-yl)(4-(4-fluorobenzo[d]thiazol-2-yl)-6,7-dihydro-1H-imidazo[4,5-c]pyridin-5(4H)-yl)methanone]
COCc1ccc2c(C(=O)N3CCc4[nH]cnc4[C@@H]3c3nc4ccccc4s3)cnn2c1 [Example 1310, (R)-(4-(benzo[d]thiazol-2-yl)-6,7-dihydro-1H-imidazo[4,5-c]pyridin-5(4H)-yl)(6-(methoxymethyl)pyrazolo[1,5-a]pyridin-3-yl)methanone]
Cc1nc(CCCN2CC(F)C2)oc1C(=O)N1CCc2[nH]cnc2[C@@H]1c1nc2ccccc2s1 [Example 1672, (R)-(4-(benzo[d]thiazol-2-yl)-6,7-dihydro-1H-imidazo[4,5-c]pyridin-5(4H)-yl)(2-(3-(3-fluoroazetidin-1-yl)propyl)-4-methyloxazol-5-yl)methanone]
O=C(c1ocnc1-c1ccccc1)N1CCc2[nH]cnc2[C@@H]1c1nc2ccccc2s1 [Example 1441, (R)-(4-(benzo[d]thiazol-2-yl)-6,7-dihydro-1H-imidazo[4,5-c]pyridin-5(4H)-yl)(4-phenyloxazol-5-yl)methanone]

AC50, < 500 nM:
CC(C)(C)c1ncc(C(=O)N2CCc3[nH]cnc3[C@H]2c2nc3c(F)cccc3s2)s1 [Example 1425]
CC(F)(F)c1ncoc1C(=O)N1CCc2[nH]cnc2[C@H]1c1nc2c(F)cccc2s1 [Example 2007]
O=C(c1ocnc1C(F)(F)F)N1CCc2[nH]cnc2[C@H]1c1nc2ccccc2s1 [Example 1325]
O=C(c1cn[nH]c1C(F)F)N1CCc2[nH]cnc2[C@H]1c1nc2c(F)cccc2s1 [Example 1859]
CC(C)(F)c1ccc2c(C(=O)N3CCc4[nH]cnc4[C@H]3c3nc4ccccc4s3)cnn2c1 [Example 1479]
CC(C)(O)c1nc(C(F)F)c(C(=O)N2CCc3[nH]cnc3[C@@H]2c2nc3ccccc3s2)s1 [Example 2106, (R)-(4-(benzo[d]thiazol-2-yl)-6,7-dihydro-1H-imidazo[4,5-c]pyridin-5(4H)-yl)(4-(difluoromethyl)-2-(2-hydroxypropan-2-yl)thiazol-5-yl)methanone]
O=C(c1oc(NC2CC2)nc1C(F)F)N1CCc2[nH]cnc2[C@H]1c1nc2ccccc2s1 [Example 1715]
O=C(c1ocnc1C1CC1)N1CCc2[nH]cnc2[C@H]1c1nc2c(F)cccc2s1 [Example 1495]
CC(O)(c1nc(C(F)(F)F)c(C(=O)N2CCc3[nH]cnc3[C@H]2c2nc3ccccc3s2)o1)C1CC1 (single isomer, unassigned) [Example 1562]

AC50, 500 to 1000 nM:
Cc1nc(C2(O)CCC2)oc1C(=O)N1CCc2[nH]cnc2[C@H]1c1nc2c(F)cccc2s1 [Example 1913, (S)-(4-(4-fluorobenzo[d]thiazol-2-yl)-6,7-dihydro-1H-imidazo[4,5-c]pyridin-5(4H)-yl)(2-(1-hydroxycyclobutyl)-4-methyloxazol-5-yl)methanone]
O=C(c1cnn2cc(CN3CCC(F)(F)C3)ccc12)N1CCc2[nH]cnc2[C@H]1c1nc2ccccc2s1 [Example 1313]
O=C(c1nc(Cl)cs1)N1CCc2[nH]cnc2[C@H]1c1nc2ccccc2s1 [Example 1057]
O=C(c1sc(C2CC2)nc1Cl)N1CCc2[nH]cnc2[C@H]1c1nc2c(F)cccc2s1 [Example 1631]
[2H]c1nc2c([nH]1)CCN(C(=O)c1cnco1)[C@@H]2c1nc2c(F)cccc2s1 [Example 2161, [(4S)-2-deuterio-4-(4-fluoro-1,3-benzothiazol-2-yl)-1,4,6,7-tetrahydroimidazo[4,5-c]pyridin-5-yl]-oxazol-5-yl-methanone]
O=C(c1n[nH]c2ccccc12)N1CCc2[nH]cnc2[C@H]1c1nc2ccccc2s1 [Example 1049]

AC50, 1000 to 5000 nM:
CC(C)(O)c1nc(Br)c(C(=O)N2CCc3[nH]cnc3[C@@H]2c2nc3ccccc3s2)o1 [Example 2090, (R)-(4-(benzo[d]thiazol-2-yl)-6,7-dihydro-1H-imidazo[4,5-c]pyridin-5(4H)-yl)(4-bromo-2-(2-hydroxypropan-2-yl)oxazol-5-yl)methanone]
Nc1cnc(N2CCc3[nH]cnc3[C@@H]2c2nc3ccccc3s2)nc1 (single isomer, unassigned) [Example 1467]
O=C(c1cn(CC2CC(F)(F)C2)nc1Cl)N1CCc2[nH]cnc2[C@@H]1c1nc2c(F)cccc2s1 [Example 2004, (R)-(3-chloro-1-((3,3-difluorocyclobutyl)methyl)-1H-pyrazol-4-yl)(4-(4-fluorobenzo[d]thiazol-2-yl)-6,7-dihydro-1H-imidazo[4,5-c]pyridin-5(4H)-yl)methanone]
O=C(c1ccnn1-c1ccccc1)N1CCc2[nH]cnc2[C@@H]1c1nc2c(F)cccc2s1 [Example 1606, (R)-(4-(4-fluorobenzo[d]thiazol-2-yl)-6,7-dihydro-1H-imidazo[4,5-c]pyridin-5(4H)-yl)(1-phenyl-1H-pyrazol-5-yl)methanone]
O=C(CCc1nccs1)N1CCc2[nH]cnc2[C@@H]1c1nc2cccc(Br)c2s1 [Example 1122, (R)-1-(4-(7-bromobenzo[d]thiazol-2-yl)-6,7-dihydro-1H-imidazo[4,5-c]pyridin-5(4H)-yl)-3-(thiazol-2-yl)propan-1-one]
O=C(c1cnn(CC2CC(F)(F)C2)c1Cl)N1CCc2[nH]cnc2[C@H]1c1nc2c(F)cccc2s1 [Example 1989, (S)-(5-chloro-1-((3,3-difluorocyclobutyl)methyl)-1H-pyrazol-4-yl)(4-(4-fluorobenzo[d]thiazol-2-yl)-6,7-dihydro-1H-imidazo[4,5-c]pyridin-5(4H)-yl)methanone]
O=C(c1cnn(-c2ccc(F)cc2)c1)N1CCc2[nH]cnc2[C@@H]1c1nc2ccccc2s1 [Example 1412, (R)-(4-(benzo[d]thiazol-2-yl)-6,7-dihydro-1H-imidazo[4,5-c]pyridin-5(4H)-yl)(1-(4-fluorophenyl)-1H-pyrazol-4-yl)methanone]

Same assay, conditions: A375 cells expressing human R408W PAH; 24 hrs with compound; 13C-Tyrosine by LC-MS; average where tested multiple times

AC50, E, E:
O=C(c1c(C(F)(F)F)nn2ccccc12)N1CCc2[nH]cnc2C1c1nc2ccccc2s1 (stereo not shown)
CC(C)(O)CCc1nc(C(F)(F)F)c(C(=O)N2CCc3[nH]cnc3C2c2nc3ccccc3s2)o1 (stereo not shown)

Same assay, conditions: A375 cells expressing human R408W PAH; 24 hrs with compound; 13C-Tyrosine by LC-MS; average where tested multiple times; read-out: AC50

AC50, > 5000 nM:
Cn1ncc(C(=O)N2CCc3[nH]cnc3C2c2nc3c(F)cccc3s2)c1Cl (stereo not shown)
O=C(c1ncco1)N1CCc2[nH]cnc2C1c1nc2cc(F)ccc2s1 (stereo not shown)
O=C(c1nnc(CCNC2CC2)o1)N1CCc2[nH]cnc2C1c1nc2ccccc2s1 (stereo not shown)
CC(C)(O)c1nc(C(=O)N2CCc3[nH]cnc3C2c2nc3c(F)cccc3s2)no1 (stereo not shown)
O=C(c1cnc(Br)s1)N1CCc2[nH]cnc2C1c1nc2ccccc2s1 (stereo not shown)
Cc1nnc(CCC(=O)N2CCc3[nH]cnc3C2c2nc3cc(F)ccc3s2)s1 (stereo not shown)
O=C(c1nccs1)N1CCc2[nH]cnc2C1c1nc2cc(F)ccc2s1 (stereo not shown)
Cc1nnc(CCC(=O)N2CCc3[nH]cnc3C2c2nc3ccccc3s2)o1 (stereo not shown)
Cn1nnc(C(=O)N2CCc3[nH]cnc3C2c2nc3c(F)cccc3s2)n1 (stereo not shown)
O=C(c1nc2ccc(F)cc2s1)N1CCc2[nH]cnc2C1c1nc2ccccc2s1 (stereo not shown)
O=C(Cc1nncs1)N1CCc2[nH]cnc2C1c1nc2ccccc2s1 (stereo not shown)
O=C(c1nc2ccccc2s1)N1CCc2[nH]cnc2C1c1nc2ccc(Cl)cc2[nH]1 (stereo not shown)

AC50, 1000 to 5000 nM:
O=C(Cc1nccs1)N1CCc2[nH]cnc2C1c1nc2ccc(Cl)cc2[nH]1 (stereo not shown)
Cc1nnc(CCC(=O)N2CCc3[nH]cnc3C2c2nc3ccccc3[nH]2)s1 (stereo not shown)
O=C(c1nnc(CCCN2CC(F)C2)o1)N1CCc2[nH]cnc2C1c1nc2ccccc2s1 (stereo not shown)
O=C(c1ncc[nH]1)N1CCc2[nH]cnc2C1c1nc2ccccc2[nH]1 (stereo not shown)
O=C(Cc1ncc(-c2ccccc2)s1)N1CCc2[nH]cnc2C1c1nc2ccccc2s1 (stereo not shown)
COCc1ncc(C(=O)N2CCc3[nH]cnc3C2c2nc3c(F)cccc3s2)o1 (stereo not shown)
Cc1nc(N2CCOCC2)oc1C(=O)N1CCCc2[nH]cnc2C1c1nc2ccccc2s1 (stereo not shown)
Cn1nc(Br)nc1C(=O)N1CCc2[nH]cnc2C1c1nc2c(F)cccc2s1 (stereo not shown)
O=C(c1nnc(-c2ccccn2)o1)N1CCc2[nH]cnc2C1c1nc2ccccc2[nH]1 (stereo not shown)
O=C(c1cc(C(F)F)n[nH]1)N1CCc2[nH]cnc2C1c1nc2c(F)cccc2s1 (stereo not shown)
CC(C)(O)c1nc(C2CC2)c(C(=O)N2CCc3[nH]cnc3[C@H]2c2nc3ccccc3[nH]2)o1 [(S)-(4-(1H-benzo[d]imidazol-2-yl)-6,7-dihydro-1H-imidazo[4,5-c]pyridin-5(4H)-yl)(4-cyclopropyl-2-(2-hydroxypropan-2-yl)oxazol-5-yl)methanone]
